Laboratory results reported in ChEMBL document CHEMBL3507680, “University of Dundee, Gates Library screen for HepG2 cell viability”.

Experiment: Human HepG2 cell viability assay in 384 well format
Format: toxicity, cell-based
Design: dose 125 nL, time 70.5 hour; cytotoxicity at 70.5 h: concentration not given beside the values
Conditions: HepG2 cells, read-out: Inhibition
CCOc1ccc(NC2CCN(C3CC3)C2=O)cn1 (configuration not stated) gave a cytotoxicity at 70.5 h of -1.16%.
FC(F)(F)COCCN1CCc2cncnc2C1 showed a cytotoxicity at 70.5 h of -2.38%.
With CS(=O)(=O)c1nnc(NC(=O)CCc2cccc(Cl)c2)[nH]1 the cytotoxicity at 70.5 h was -7.49%.
O=C(NCC1CC1)[C@H]1C[C@@H]2CCN(CCc3ccccc3)C[C@H]2O1 showed a cytotoxicity at 70.5 h of -4.59%.
For COCc1ncn2c1CN(S(=O)(=O)c1cccs1)CCC2, the cytotoxicity at 70.5 h was 10.6%.
Compound CC(C)(C(=O)N1CCC(CS(N)(=O)=O)CC1)c1ccccc1F has a cytotoxicity at 70.5 h of 1.82%.
With CN(C)CCN1CCO[C@@H]2CN(C(=O)c3cccs3)CC[C@@H]2C1 the cytotoxicity at 70.5 h was -16.4%.
With CCC1(c2ccc(NS(=O)(=O)N(C)C)cc2)CCC(=O)NC1=O (configuration not stated) the cytotoxicity at 70.5 h was -2.76%.
With COCc1nc(N2CCC(CCO)CC2)c2cnn(C)c2n1 the cytotoxicity at 70.5 h was 2.73%.
With Cc1nn(C)c(N2CCOCC2)c1CNC1CCOc2ccccc21 (configuration not stated) the cytotoxicity at 70.5 h was -3.07%.
In the case of N#CCCN(Cc1cccnc1)C(=O)Cc1ccc(-n2cnnn2)cc1, the cytotoxicity at 70.5 h is reported as -10.6%.
O=C(N1CCCC1)N1CCC(c2nccn2Cc2cscn2)CC1 gave a cytotoxicity at 70.5 h of -5.23%.
Compound CC(Cn1cccn1)NC(=O)Nc1nnc(C2CC2)s1 (configuration not stated) has a cytotoxicity at 70.5 h of -11%.
Work on CNC(=O)CCc1cc(C)nc(C2CCCCN2)n1 (configuration not stated) yielded a cytotoxicity at 70.5 h of -4.98%.
Work on CNC(=O)C1CCN(C(=O)NCc2ccc(C)n2C)CC1 yielded a cytotoxicity at 70.5 h of -4.71%.
CC(C)Cc1cc(C(=O)N2CCCN(c3ncccn3)CC2)[nH]n1 showed a cytotoxicity at 70.5 h of -1.63%.
With NC(=O)CNC(=O)c1cc(Cn2cnc3ccccc32)[nH]n1 the cytotoxicity at 70.5 h was -5.83%.
For NC(=O)CCn1ccc(NC(=O)c2ccc(Br)o2)n1, the cytotoxicity at 70.5 h was -5.23%.
Compound O=C(CO)N1CCCC2(CCC(=O)N(CC3CC3)C2)C1 (configuration not stated) has a cytotoxicity at 70.5 h of -11%.
For Cc1nc(C)c(CN2CCOC(Cc3ccccc3Cl)C2)nc1C (configuration not stated), the cytotoxicity at 70.5 h was -2.34%.
Cc1ccccc1C(CNC(=O)CSc1nnc(N)s1)N(C)C (configuration not stated) gave a cytotoxicity at 70.5 h of -6.4%.
With Cc1cc(C)nc(N2CCC(Cn3cc(C(N)=O)cn3)CC2)n1 the cytotoxicity at 70.5 h was -7.04%.
Compound CCc1nc(C2CCCN2Cc2nnc(Cc3ccccc3)o2)no1 (configuration not stated) has a cytotoxicity at 70.5 h of -10.8%.
Work on CCn1cc(CN2CCN(C(=O)c3cc(C)c(C)s3)CC2)c(C)n1 yielded a cytotoxicity at 70.5 h of -10.4%.
With CCN(CC)S(=O)(=O)N(CC)Cc1ccc2c(c1)OCCO2 the cytotoxicity at 70.5 h was -10.6%.
In the case of CCOCCNC(=O)Nc1ccc(OCc2noc(C3CC3)n2)cc1, the cytotoxicity at 70.5 h is reported as -7.9%.
For COc1ccc(CC2CN(C3CCSCC3)CCO2)cc1 (configuration not stated), the cytotoxicity at 70.5 h was 1.2%.
Compound COCCOc1ccnc(-c2noc([C@@H]3CCCN3C(C)C)n2)c1 has a cytotoxicity at 70.5 h of -5.66%.
Compound O=C(C[C@H]1[C@H]2CN(Cc3ccncc3)C[C@@H]12)N1CCCC1 has a cytotoxicity at 70.5 h of 20.1%.
With Cc1cc(C)n(-c2ccc(N3CCC(O)CC3)nc2)n1 the cytotoxicity at 70.5 h was -1.96%.
Compound Cc1cn(CCn2ccnc2-c2sccc2C)nn1 has a cytotoxicity at 70.5 h of -2.5%.
In the case of CCC1(O)CCCN(c2ncnc3c2c(C)nn3C)C1 (configuration not stated), the cytotoxicity at 70.5 h is reported as -4.68%.
Work on O=C1NCCCCC1NC(=O)N1CCc2ccccc21 (configuration not stated) yielded a cytotoxicity at 70.5 h of -14.4%.
With COCCN(Cc1ccoc1)S(=O)(=O)c1ccc(F)c(Cl)c1 the cytotoxicity at 70.5 h was 42.1%.
In the case of CCc1nc(Cn2c(=O)c3c(C(F)(F)F)cc(C)nc3n2C)no1, the cytotoxicity at 70.5 h is reported as 0.468%.
Work on COc1ccc(-c2cc3cccn(CC(=O)N4CCOCC4)c-3n2)cc1 yielded a cytotoxicity at 70.5 h of 10.5%.
Cc1cc(C)n(CC(=O)N2CCC(NS(C)(=O)=O)CC2)n1 showed a cytotoxicity at 70.5 h of -11.4%.
Compound Cc1cc(C(=O)N[C@H](C)c2onc(-c3cccnc3)c2C(=O)O)c(C)o1 has a cytotoxicity at 70.5 h of -2.03%.
Compound Cc1cccc(S(=O)(=O)NC2CCN(CC(F)(F)F)C2)c1 (configuration not stated) has a cytotoxicity at 70.5 h of -15.5%.
Compound O[C@@]1(CNCCCNc2cccnc2)CCCN2CCCC[C@@H]21 has a cytotoxicity at 70.5 h of -5.62%.
CC(NC(=O)c1cccnc1N(C)C)c1ccccc1Cl (configuration not stated) showed a cytotoxicity at 70.5 h of -9.9%.
Work on Cc1cnc(NC(C)Cc2cccnc2)nc1N(C)C (configuration not stated) yielded a cytotoxicity at 70.5 h of 0.166%.
CNCc1nc(-c2ccc3c(c2)OCO3)c[nH]1 showed a cytotoxicity at 70.5 h of -13.6%.
Compound O=C1C[C@H]2[C@@H](CCN2C(=O)c2cscn2)N1Cc1cccnc1 has a cytotoxicity at 70.5 h of -20.8%.
Compound Cc1ccc(Oc2ncccc2CNC2CCSCC2)cn1 has a cytotoxicity at 70.5 h of -8.64%.
Compound CCCn1nnnc1CN(c1ccc(N2CCOCC2)cc1)C(C)C has a cytotoxicity at 70.5 h of -8.46%.
Nc1ncccc1CN1C[C@@H](C(=O)O)[C@H](c2cccc(F)c2)C1 showed a cytotoxicity at 70.5 h of 1.75%.
Compound CC[C@@]1(O)CCN(C(=O)c2ccc(OC(F)F)cc2)C[C@H]1O has a cytotoxicity at 70.5 h of -4.22%.
For COCCn1cc2c(n1)C(CNS(C)(=O)=O)OCC2 (configuration not stated), the cytotoxicity at 70.5 h was -2.51%.
Work on Cc1nc(C)n(C2CCCN(C(=O)Cc3n[nH]c4ccccc34)C2)n1 (configuration not stated) yielded a cytotoxicity at 70.5 h of 1.52%.
Compound CCCN(CCC)Cc1nnsc1Cl has a cytotoxicity at 70.5 h of -13.7%.
Work on CCO[C@H]1C[C@@H](O)C12CCN(C1CCN(c3ccccc3)CC1)CC2 yielded a cytotoxicity at 70.5 h of -5.15%.
N#Cc1ccsc1N1CCC(Sc2ccncc2)C1=O (configuration not stated) showed a cytotoxicity at 70.5 h of -7.07%.
With CC(c1ccccn1)N(C)Cc1cc2cc3c(cc2[nH]c1=O)OCO3 (configuration not stated) the cytotoxicity at 70.5 h was 6.6%.
CN1CCN(C(=O)C[C@@H]2COC[C@H]3CN(c4ccncn4)C[C@@H]23)CC1 gave a cytotoxicity at 70.5 h of 12.2%.
For O=S(=O)(NCCN1CCCCC1Cn1cncn1)c1ccccc1 (configuration not stated), the cytotoxicity at 70.5 h was -3.24%.
Work on Clc1ccc2oc(C3CCN(Cc4cccnc4)CC3)nc2c1 yielded a cytotoxicity at 70.5 h of 22.9%.
With Cc1ccccc1-c1cc(C(=O)NCCN2CCCS2(=O)=O)[nH]n1 the cytotoxicity at 70.5 h was -15.5%.
With Cc1csc(C2CCCCN2C(=O)CCCn2cncn2)n1 (configuration not stated) the cytotoxicity at 70.5 h was -9.21%.
In the case of Cc1noc(-c2ccc(N(C)Cc3cccnc3)nc2)n1, the cytotoxicity at 70.5 h is reported as -15.4%.
For CN(C)Cc1cn(-c2ccccc2C(=O)NCC2CCCCN2C)cn1 (configuration not stated), the cytotoxicity at 70.5 h was 25.3%.
With O=C(Nc1ccccc1)N1C[C@@H]2OCCN(C(=O)c3ccco3)[C@@H]2C1 the cytotoxicity at 70.5 h was -0.595%.
Cc1nn(C)c(C)c1C1COCCN1C(=O)NC1CC1 (configuration not stated) showed a cytotoxicity at 70.5 h of 19.2%.
With O=C(NCC(O)c1cccc(F)c1)c1cccnc1O (configuration not stated) the cytotoxicity at 70.5 h was -5.45%.
With NC(=O)CN1CCC(NC(=O)COc2ccc(Cl)c(Cl)c2)CC1 the cytotoxicity at 70.5 h was -2.35%.
C1CC1c1nsc(N2CCN(C3CC3)CC2)n1 showed a cytotoxicity at 70.5 h of 1.41%.
Compound O=C(NCCNC1CCCCC1)c1cccs1 has a cytotoxicity at 70.5 h of -6.1%.
Work on CCC/C=C/c1ccc(CN2CCCC2)cn1 yielded a cytotoxicity at 70.5 h of 48.4%.
Work on Cc1cnc2n(c1=O)CC(C(=O)NCc1ccccc1Cl)CS2 (configuration not stated) yielded a cytotoxicity at 70.5 h of 2.42%.
In the case of COc1ncccc1C(=O)N1CC[C@H]2C[C@H](c3nnc(C)[nH]3)O[C@@H]2C1, the cytotoxicity at 70.5 h is reported as -14.1%.
Compound COC(=O)N1CCCC(C(=O)N(C)C)C1 (configuration not stated) has a cytotoxicity at 70.5 h of -9.72%.
Work on COc1ccc(C(=O)N2C[C@@H](c3ccccc3)[C@@H]3NCCCC[C@@H]32)cc1 yielded a cytotoxicity at 70.5 h of -8.54%.
With Cc1nc(C)c(C)c(N2C[C@@H](CN3CCCN(C)CC3)[C@@H](CO)C2)n1 the cytotoxicity at 70.5 h was -1.83%.
In the case of Fc1cnc(N2CCN(Cc3ccc(-c4cc[nH]n4)o3)CC2)nc1, the cytotoxicity at 70.5 h is reported as -3.42%.
Work on C=C(C)CN1CCN(CCC(=O)Nc2ccccc2C(N)=O)CC1 yielded a cytotoxicity at 70.5 h of -10.8%.
COC(=O)CCCn1ccnc1-c1ccccc1 gave a cytotoxicity at 70.5 h of -3.23%.
With Cc1cc(N)nc(SC2CCCN(Cc3ccccc3)C2=O)n1 (configuration not stated) the cytotoxicity at 70.5 h was -9.67%.
CCOc1ccc(C(=O)CCC(=O)N(C)Cc2nc(C)c[nH]2)cc1C showed a cytotoxicity at 70.5 h of -19.8%.
For Cc1nc[nH]c1C(=O)N1CCCC2(C1)C(=O)N(C)c1ccccc12 (configuration not stated), the cytotoxicity at 70.5 h was -3.87%.
Cc1ncsc1CN1CCn2nc(CCC(=O)N3CCCC3)cc2C1 showed a cytotoxicity at 70.5 h of -6.96%.
Work on COc1cc(-c2nc3c([nH]2)CCCNC3=O)cc(OC)c1OC yielded a cytotoxicity at 70.5 h of -1.49%.
COCCc1noc(-c2ccc(-c3ccc(N)nc3)nc2)n1 gave a cytotoxicity at 70.5 h of -2.31%.
